In US8476317B2, “N-alkylcarbonyl-amino acid ester compounds and their use for cough and pharyngitis” (priority 2011, dated 2013):
Values joined by “and” are separate entries in the source; they are usually repeats but may differ in a detail not shown here. Identical values can stand only once.

Assays:
TRP-M8 = target: T1, TRP-M8 (Homo sapiens, UniProt Q7Z2W7); assay: TRP-M8 receptor assay; format: cell-based; settings: for EC50: data from Prof. D. Bautista's laboratory
T1 construct: expressed in transfected cells
Description: Psychic events such as refreshment, soothing, cooling, irritation, itch, and pain cannot be verbalized by animals (animals cannot say “it feels cold”, “ouch”, or that “it itches”). […] Receptor assays, based on cells transfected with the genes for proteins associated with thermosensation (e.g., TRP-M8, TRP-A1, TRP-V1) may be used as a model of sensory processes and provide quantitative data. […] The in vitro assay gives no information on onset and offset of action, but yields information on comparative potency of the two enantiomers. Further evaluation of the pharmacological properties of the test substances were based on direct tests in human subjects.
Thus, the D-configuration of the α-carbon of Ala is an absolute requirement for therapeutic utility in cough. This separation of activity between the D- and L-enantiomers was also apparent in the TRP-M8 receptor assay (data from Prof. D. Bautista's laboratory at the University of California at Berkeley). […] Thus, in an equal mixture (racemic) of D-Ala and L-Ala enantiomers, it is likely that ˜97% of the anti-cough activity would be contributed by the D-enantiomer (of Formula 1).

cough = format: in vivo, human; settings: for cooling action of ODT on the pharyngeal surface: Study 6, ODT; for effectiveness in reducing cough: Study 6, ODT 2.0 to 2.5 mg, 14 adult males with cough
Method: In 20 trials, 10 trials per subject, two mg of 95%+ pure powder of a D-Ala ethyl compound (No. 2 in Table 1, (R)-2-[((1R,2S,5R)-2-isopropyl-5-methyl-cyclohexanecarbonyl)-amino]-propionic acid ethyl ester)) of Formula (1) was placed on the mid-portion of the tongue of these two subjects. Both subjects reported relief from the desire to cough within 1 minute after application. Sensations of robust coolness in the back of the throat was noted and lasted for about 30 minutes. Applications of similar amounts of powdered sugar were not effective. The placebo could be clearly distinguished from the active compound because of the absence of cooling sensations.
A person with a documented 31-year history of asthma attacks volunteered to test one of the compounds falling within Formula (1). They were extremely sensitive to agents such as tobacco smoke, dust, pollen, odors, down/woolen materials, house cleansing products, pets, and sudden change of air temperature, and reacted with violent coughing, mucus secretions, wheezing, choking, and shortness of breath. At the time of this trial, they were taking these medications for their condition: theophylline, Allegra®, Advair®, Intal®, and Singulair®. In 5 trials, during a coughing spree, they placed one to two mg of 95%+ pure powder of a D-Ala ethyl ester (No. 2 in Table 1, ((R)-2-[((1R,2S,5R)-2-isopropyl-5-methyl-cyclohexanecarbonyl)-amino]-propionic acid ethyl ester))) of Formula (1) on the mid-portion of their tongue. They reported a soothing and cool sensation with a slight taste similar to Eucalyptus oil in their mouth and throat. Coughing stopped after 3 to 5 minutes and breathing was normal. […] In three trials when the compound was applied at night, they slept through the night without being awakened by cough. Their spouse remarked that, in over 30 years of marriage, this was the first time that they had seen an effective medication for their cough. They noted that the irritative signals of cough were absent in the presence of the applied chemical, but they still sensed a mechanical build up of secretions in their airways and could voluntarily cough up such secretions if necessary. They continue to use the test compound for management of their asthma, with the knowledge and consent of their physician.
A person had adult-onset asthma for 20 years. Triggers for attacks were tobacco smoke, dust, and changes in air temperature. They used Foradil® (formoterol fumarate) and Asmanex® (mometasone fuorate) twice a day to control their asthma, and monitored their pulmonary function with a portable device for measuring peak expiratory flow. They had daily episodes of both productive and non-productive cough. In 5 trials, when they felt throat irritation and a desire to cough, placement of 1 to 3 mg of (R)-2-[((1R,2S,5R)-2-isopropyl-5-methyl-cyclohexanecarbonyl)-amino]-propionic acid ethyl ester) (No. 2 in Table 1) provided rapid relief and was described as soothing and removed “tightness” in the chest. Peak expiratory flow improved from 320 Umin to 370 Umin. […] The subjective response to the long-acting NACE compound was definitely favourable. The subject remarked that the best time to use the NACE compuound was after inhaling the crystalline Foradil® because this inhaled drug irritated their throat.
ODT containing 2.0 to 2.5 mg of D-Aa Me Ester, D-Ala Et Ester, or D-Ala iPr Ester (identified chemically in Table 1 as No. 1, No. 2, and No. 3, respectively) were prepared using mannitol/maltitol as the excipient and stored in tic-tac boxes each containing 10 tablets. Over a course of two years, 14 adult males with cough tested these tablets. The causes of coughing were colds/flu, allergies, pharyngitis, excessive smoking, and two cases of gastroesophageal reflux. These individuals all had advanced degrees (M.D. or Ph.D.) and were motivated to try the tablets by scientific curiosity or because of financial interests in drug development, or, in several cases, by the annoyance caused by the cough. […]

oral cavity / oropharynx = assay: Cooling in oral cavity after application on dorsal surface of tongue; format: in vivo, human; settings: dose of 1 to 2 mg, normal subjects
Method: The subject is instructed to close and hold the substance in the mouth for at least 10 seconds and not to swallow. The description of sensations is then recorded at 5 to 10 minute intervals.
The compounds of Formula 1 are white crystalline solids at room temperatures. These compounds were tested as the pure powder (>95% purity, by HPLC analysis), or mixed 1:1 with powdered or granulated sugar. The test substances were applied at 2 to 5 mg on the mid-point of the dorsal surface of the tongue using a metal spatula or a plastic applicator. After depositing the test substance on the tongue, the subject was instructed to keep the mouth closed and allow the fluids of the mouth to inter-mix with the test substance and to distribute it to the back of the mouth (oropharynx). The presence and duration of subjective sensations from the mouth was then recorded.

T1 sequence (Q7Z2W7 whole entry, species assumed): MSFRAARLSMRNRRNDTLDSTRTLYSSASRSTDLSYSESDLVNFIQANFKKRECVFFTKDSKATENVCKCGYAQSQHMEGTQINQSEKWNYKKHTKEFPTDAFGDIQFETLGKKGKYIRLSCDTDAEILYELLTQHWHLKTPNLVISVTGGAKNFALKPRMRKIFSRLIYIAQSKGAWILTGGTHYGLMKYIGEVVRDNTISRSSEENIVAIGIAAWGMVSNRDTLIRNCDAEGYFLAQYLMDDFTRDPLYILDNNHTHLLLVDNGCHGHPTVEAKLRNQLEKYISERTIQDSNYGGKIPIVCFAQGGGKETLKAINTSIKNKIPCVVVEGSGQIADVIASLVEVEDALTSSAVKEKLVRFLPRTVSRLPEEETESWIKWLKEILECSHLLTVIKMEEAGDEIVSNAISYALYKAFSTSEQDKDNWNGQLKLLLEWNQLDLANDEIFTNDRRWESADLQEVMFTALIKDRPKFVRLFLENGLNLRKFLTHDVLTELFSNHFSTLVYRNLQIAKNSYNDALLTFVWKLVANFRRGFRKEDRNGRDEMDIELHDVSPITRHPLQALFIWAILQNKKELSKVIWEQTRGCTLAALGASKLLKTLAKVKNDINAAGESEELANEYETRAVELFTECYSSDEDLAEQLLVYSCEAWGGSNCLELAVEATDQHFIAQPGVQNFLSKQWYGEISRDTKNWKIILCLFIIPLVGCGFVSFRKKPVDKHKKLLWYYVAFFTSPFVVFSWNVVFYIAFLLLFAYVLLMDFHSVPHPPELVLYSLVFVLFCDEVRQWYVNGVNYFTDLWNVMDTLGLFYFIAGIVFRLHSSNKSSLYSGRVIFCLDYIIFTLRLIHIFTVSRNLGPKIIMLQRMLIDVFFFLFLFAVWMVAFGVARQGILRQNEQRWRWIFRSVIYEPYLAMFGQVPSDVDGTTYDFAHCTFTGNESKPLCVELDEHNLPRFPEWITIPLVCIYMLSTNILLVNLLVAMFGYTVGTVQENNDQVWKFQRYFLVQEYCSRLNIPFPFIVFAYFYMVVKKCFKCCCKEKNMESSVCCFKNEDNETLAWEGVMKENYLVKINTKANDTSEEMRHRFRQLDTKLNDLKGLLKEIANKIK

EC50 (TRP-M8) | difference of EC50, D-Ala-OEt versus L-Ala-OEt (TRP-M8; TRP-M8 receptor assay) [fold] | SMILES | cooling action of ODT on the pharyngeal surface (cough) | duration of cooling sensations on the tongue (oral cavity / oropharynx) | effectiveness in reducing cough (cough) [%] | duration of absence of irritation and itching at the back of the throat (cough signals) (cough; Study 3) [h] | time individual was observed not to cough (cough; Study 3) [h] | time desire to cough was removed (cough; Study 3, after 4 or 6 applications within 2 days) | time to relief from the desire to cough (cough; Study 3, two cigar smokers, two mg powder on tongue) [min] | duration of robust coolness in the back of the throat (cough; Study 3, two mg powder on tongue) | time until coughing stopped (cough; Study 4, asthmatic, one to two mg on tongue) [min] | recurrence of asthmatic coughing attacks (cough; Study 4, continued use) | effect when given in the midst of a productive cough spell (cough; Study 5, 3 episodes) | relief of throat irritation and desire to cough (cough; Study 5, 5 trials, 1 to 3 mg) | Peak expiratory flow (cough; Study 5, asthmatic, 1 to 3 mg, improved from 320) [Umin] | side-effects (cough; human, in vivo)
18 µM |  | CCOC(=O)C(C)NC(=O)[C@@H]1C[C@H](C)CC[C@H]1C(C)C (stereo partly drawn) [L-Ala-OEt] | inactive |  |  |  |  |  |  |  |  |  |  |  |  | 
 |  | COC(=O)[C@@H](C)NC(=O)[C@@H]1C[C@H](C)CC[C@H]1C(C)C [D-Ala-OMe, (R)-2-[((1R,2S,5R)-2-isopropyl-5-methyl-cyclohexanecarbonyl)-amino]-propionic acid methyl ester] | robust cooling action | about 30 minutes | 100 |  |  |  |  |  |  |  |  |  |  | 
0.48 µM and 0.5 µM | 37 | CCOC(=O)[C@@H](C)NC(=O)[C@@H]1C[C@H](C)CC[C@H]1C(C)C [D-Ala-OEt, (R)-2-[((1R,2S,5R)-2-isopropyl-5-methyl-cyclohexanecarbonyl)-amino]-propionic acid ethyl ester] | robust cooling action | about 30 minutes | 100 | 4 to 5 | 6 to 8 | at least 5 days | ≤ 1 | about 30 minutes | 3 to 5 | have not recurred with any severity for one month | no significant effects were observed | rapid relief | 370 | did not sense any build up of mucus or other side-effects
